Data taken from ChEMBL document CHEMBL1201862, “PubChem BioAssay data set” (2004).
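Values below derive from 48-hour exposures of cells grown in 96-well plates, with endpoints linearly interpolated between the two concentrations bracketing the appropriate inhibition level. GI50 = concentration required for 50% inhibition of growth.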 Activity calls are given as the source filed them. Cut-off read from the data, not from the text of the source: active = GI50 up to about 1.1 µM and inactive = higher.

Assays:
Assay in all cases: NCI anticancer screen, dose series, 48 h
[1] = system: PC-3
[2] = system: SK-MEL-2
[3] = system: SR
[4] = system: MCF7
[5] = system: SK-MEL-28
[6] = system: Malme-3M
[7] = system: MDA-N
[8] = system: CCRF-CEM
[9] = system: K562
[10] = system: COLO 205
[11] = system: IGROV-1
[12] = system: HT-29
[13] = system: A498
[14] = system: HCC 2998
[15] = system: CAKI-1
[16] = system: NCI-H226
[17] = system: BT-549
[18] = system: SF-268
[19] = system: SW-620
[20] = system: HCT-116

Row | Compound | GI50 [1] | GI50 [2] | GI50 [3] | GI50 [4] | GI50 [5] | GI50 [6] | GI50 [7] | GI50 [8] | GI50 [9] | GI50 [10] | GI50 [11] | GI50 [12] | GI50 [13] | GI50 [14] | GI50 [15] | GI50 [16] | GI50 [17] | GI50 [18] | GI50 [19] | GI50 [20]
1 | CN(C)CC1CCCc2ccccc2C1=O (stereo not given) | 1.57 µM (inactive) | 2.02 µM (inactive) | 0.271 µM (active) | 0.231 µM (active) | 6.03 µM (inactive) | 1.77 µM (inactive) | 1.58 µM (inactive) | 0.107 µM (active) | 0.323 µM (active) | 5.14 µM (inactive) | 2.06 µM (inactive) | 1.82 µM (inactive) | 19.5 µM (inactive) | 6.31 µM (inactive) | 1.93 µM (inactive) | 21.8 µM (inactive) | 5.06 µM (inactive) | 2.21 µM (inactive) | 0.54 µM (active) | 1.85 µM (inactive)
2 | CC1(C)C=C(S(=O)(=O)c2ccccc2)Oc2ccccc2O1 | 27.9 µM (inactive) | 52.4 µM (inactive) | 41.9 µM (inactive) | 43.5 µM (inactive) | 41.7 µM (inactive) | 26.2 µM (inactive) | 35.7 µM (inactive) | 40.1 µM (inactive) | 29.8 µM (inactive) | 18.8 µM (inactive) | 44.2 µM (inactive) | 39.6 µM (inactive) | 30.8 µM (inactive) | 15.7 µM (inactive) | 69.2 µM (inactive) | 46.6 µM (inactive) | 42.7 µM (inactive) | 61.1 µM (inactive) | 75.9 µM (inactive) | 29.5 µM (inactive)
3 | CS(=O)(=O)OC1CCN(C2(c3cccc(O)c3)CCCCC2)CC1 | 33.6 µM (inactive) | > 100 µM (inactive) | 23.6 µM (inactive) | 31.8 µM (inactive) | 60.4 µM (inactive) | > 100 µM (inactive) | 30.5 µM (inactive) | 22.6 µM (inactive) | 39.6 µM (inactive) | 32.6 µM (inactive) | 28.7 µM (inactive) | 36.1 µM (inactive) | > 100 µM (inactive) | 20.6 µM (inactive) | > 100 µM (inactive) | > 100 µM (inactive) | 46.2 µM (inactive) | 71.3 µM (inactive) | 29.9 µM (inactive) | 31.8 µM (inactive)
4 | Nc1c(S(=O)(=O)O)cc(Nc2cccc(S(=O)(=O)/C=C/S(=O)(=O)O)c2)c2c1C(=O)c1ccccc1C2=O | > 100 µM (inactive) | > 100 µM (inactive) | > 100 µM (inactive) | > 100 µM (inactive) | > 100 µM (inactive) | > 100 µM (inactive) | > 100 µM (inactive) | > 100 µM (inactive) | > 100 µM (inactive) | > 100 µM (inactive) | > 100 µM (inactive) | > 100 µM (inactive) | > 100 µM (inactive) | > 100 µM (inactive) | > 100 µM (inactive) | > 100 µM (inactive) | > 100 µM (inactive) | > 100 µM (inactive) | > 100 µM (inactive) | > 100 µM (inactive)
5 | C[S+]([O-])c1cc(=O)c2ccccc2s1 (stereo not given) | 15.5 µM (inactive) | 10.8 µM (inactive) | 1.56 µM (inactive) | 5.42 µM (inactive) | 4.2 µM (inactive) | 2.3 µM (inactive) | 3.05 µM (inactive) | 1.7 µM (inactive) | 1.82 µM (inactive) | 2.32 µM (inactive) | 17.5 µM (inactive) | 4.35 µM (inactive) | 11.5 µM (inactive) | 7.64 µM (inactive) | 3.09 µM (inactive) | 16.9 µM (inactive) | 14.5 µM (inactive) | 10.2 µM (inactive) | 1.91 µM (inactive) | 2.55 µM (inactive)
6 | CC[C@]12C=CCN3CC[C@@]4(c5cc(N=O)c(OC)cc5N(C)[C@H]4[C@@](O)(C(=O)OC)[C@@H]1OC(C)=O)[C@@H]32 | 40.8 µM (inactive) | 18 µM (inactive) | 47.8 µM (inactive) | 24.5 µM (inactive) | > 100 µM (inactive) | 71.3 µM (inactive) | 20.1 µM (inactive) | 21.6 µM (inactive) | 46.7 µM (inactive) | 38.2 µM (inactive) | > 100 µM (inactive) | 48.5 µM (inactive) | > 100 µM (inactive) | > 100 µM (inactive) | 41 µM (inactive) | > 100 µM (inactive) | > 100 µM (inactive) | > 100 µM (inactive) | 31.6 µM (inactive) | 50.7 µM (inactive)
7 | Cn1c2c3c(F)c(F)ccc3nc-2cc2ccccc21 | 2.85 µM (inactive) | 3.27 µM (inactive) | 2.33 µM (inactive) | 0.431 µM (active) | 4.17 µM (inactive) | 2.7 µM (inactive) | 3.64 µM (inactive) | 1.91 µM (inactive) | 3.11 µM (inactive) | 2.08 µM (inactive) | 3.42 µM (inactive) | 1.52 µM (inactive) | 0.443 µM (active) | 1.32 µM (inactive) | 2.39 µM (inactive) | 2.59 µM (inactive) | 3 µM (inactive) | 3.24 µM (inactive) | 1.49 µM (inactive) | 0.125 µM (active)
8 | COc1c(O)c(O)c2c(c1O)C(=O)c1cc(C)cc(O)c1C2=O | 31.1 µM (inactive) | > 100 µM (inactive) | 31.6 µM (inactive) | 44.8 µM (inactive) | 98.6 µM (inactive) | 8.91 µM (inactive) | 53 µM (inactive) | 33.3 µM (inactive) | 37.4 µM (inactive) | 24.5 µM (inactive) | 13.2 µM (inactive) | 24.4 µM (inactive) | 49.2 µM (inactive) | 75.2 µM (inactive) | 37.9 µM (inactive) | 20 µM (inactive) | 40.4 µM (inactive) | 30.2 µM (inactive) | 40 µM (inactive) | 32.8 µM (inactive)
9 | CCC1(O)C=CC(=O)C=C1 | 20.9 µM (inactive) | 31.1 µM (inactive) | 36.8 µM (inactive) | 24 µM (inactive) | 23.3 µM (inactive) | 8.77 µM (inactive) | 28.8 µM (inactive) | 60.7 µM (inactive) | 39.5 µM (inactive) | 42.4 µM (inactive) | 17.2 µM (inactive) | 31.8 µM (inactive) | 24.5 µM (inactive) | 40.8 µM (inactive) | 31.4 µM (inactive) | 25.5 µM (inactive) | 43.5 µM (inactive) | 20.7 µM (inactive) | 36.7 µM (inactive) | 36.1 µM (inactive)
10 | CCN(CC)c1c(N(CC)CC)c(=O)c1=O | 17.9 µM (inactive) | 22.5 µM (inactive) | 24.8 µM (inactive) | 11.2 µM (inactive) | 17.4 µM (inactive) | 3.25 µM (inactive) | 16.3 µM (inactive) | 3.53 µM (inactive) | 6.12 µM (inactive) | 2.63 µM (inactive) | 2.81 µM (inactive) | 2.42 µM (inactive) | 22.6 µM (inactive) | 20.3 µM (inactive) | 4.27 µM (inactive) | 17.2 µM (inactive) | 19.1 µM (inactive) | 26.1 µM (inactive) | 4.16 µM (inactive) | 8.07 µM (inactive)
